# Results reported in patent publication US20110065694A1 (priority 2009, published 2011).
# Biological target: human histamine H3 receptor (Homo sapiens, UniProt Q9Y5N1)
# Test: H3 GTPγS assay (SPA method), histamine H3 in vitro assay
# Format: biochemical
# Conditions: not given
# Experimental: Briefly, cells expressing the human histamine H3 receptor were homogenized in 15 mM Tris-HCl pH 7.5, 2 mM MgCl2, 0.3 mM EDTA, and 1 mM EGTA. […] Membranes were frozen in liquid nitrogen until use. On the day of the assay, membranes were thawed and diluted in assay buffer (20 mM HEPES pH 7.4, 100 mM NaCl, 10 μg/ml saponin, 1 mM MgCl2) to give 500 μg/ml and mixed (v/v) with GDP in assay buffer for a final GDP concentration of 10 μM and incubated on ice for at least […]. PVT-WGA beads (Amersham, RPNQ001) were diluted in assay buffer at 50 mg/mL and mixed with GTPγ[^35S] (Amersham, SJ1308) diluted in assay buffer to give ˜25,000 dpm/10 μL and mixed vol/vol just before the start of the reaction.
# For antagonists testing, 10 μL of a reference agonist ([…]) instead of 10 μL buffer was added at a concentration corresponding to the EC80 (30 nM).
# The compounds provided herein were tested in the histamine H3 in vitro assay. In one embodiment, the respective HCl salts of the compounds provided herein were prepared using standard chemical procedures and tested in the histamine H3 in vitro assay.
# Chain of human histamine H3 receptor (Q9Y5N1 whole entry): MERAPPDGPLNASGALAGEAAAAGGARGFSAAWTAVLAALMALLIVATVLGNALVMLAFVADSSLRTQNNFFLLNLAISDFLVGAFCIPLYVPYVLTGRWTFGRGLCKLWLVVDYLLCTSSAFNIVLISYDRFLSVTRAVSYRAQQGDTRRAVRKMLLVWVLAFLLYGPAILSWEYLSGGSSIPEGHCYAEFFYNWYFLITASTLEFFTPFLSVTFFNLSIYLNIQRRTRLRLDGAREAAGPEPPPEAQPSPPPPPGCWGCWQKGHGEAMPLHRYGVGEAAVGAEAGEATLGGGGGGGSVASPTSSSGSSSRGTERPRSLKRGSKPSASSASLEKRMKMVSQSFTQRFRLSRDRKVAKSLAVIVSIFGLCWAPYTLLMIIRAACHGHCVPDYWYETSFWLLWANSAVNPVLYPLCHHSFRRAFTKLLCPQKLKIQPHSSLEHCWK
row,Structure (SMILES),IC50
1,"Brc1ccc2c(c1)nc1n2CCN2CCC[C@H]2C1 [Compound 1, (S)-10-bromo-2,3,5,6,13,13a-hexahydro-1H-benzo[4,5]imidazo[1,2-d]pyrrolo[2,1-g][1,4]diazepine]",< 1000 nM
2,"N#Cc1ccc(-c2ccc3c(c2)nc2n3CCN3CCC[C@H]3C2)cc1 [Compound 2, (S)-4-(2,3,5,6,13,13a-hexahydro-1H-benzo[4,5]imidazo[1,2-d]pyrrolo[2,1-g][1,4]diazepin-10-yl)benzonitrile]",< 100 nM
3,"Brc1ccc2c(c1)nc1n2CC2CCCN2CC1 (stereo not shown) [Compound 12, 9-bromo-2,3,5,6,13,13a-hexahydro-1H-benzo[4,5]imidazo[1,2-d]pyrrolo[1,2-a][1,4]diazepine]",> 1000 nM
4,"c1coc(-c2ccc3c(c2)nc2n3CC3CCC(C2)N3C2CCC2)c1 (stereo not shown) [Compound 19, 13-cyclobutyl-3-(furan-2-yl)-6,7,8,9,10,11-hexahydro-7,10-epiminobenzo[4,5]imidazo[1,2-a]azocine]",< 100 nM
5,"NCc1ccc(-c2ccc3c(c2)nc2n3CC3CCC(C2)N3C2CCC2)cc1 (stereo not shown) [Compound 23, (4-(13-cyclobutyl-6,7,8,9,10,11-hexahydro-7,10-epiminobenzo[4,5]imidazo[1,2-a]azocin-3-yl)phenyl)-methanamine]",< 10 nM
6,"N#Cc1ccc(-c2ccc3c(c2)nc2n3C3CCC2CN(C2CCC2)C3)cc1 (stereo not shown) [Compound 26, 4-(3-cyclobutyl-2,3,4,5-tetrahydro-1H-1,5-ethanobenzo[4,5]imidazo[1,2-d][1,4]diazepin-8-yl)benzonitrile]",< 100 nM

# Same assay, conditions: membranes of cells expressing human H3; GTPγ[35S] SPA; antagonist testing with reference agonist at EC80 (30 nM); in one embodiment HCl salts tested; read-out: Potency (functional potency as indicated by IC50)
row,Structure (SMILES),IC50
1,"N#Cc1ccc(-c2ccc3c(c2)nc2n3CC3CCC(C2)N3C2CCC2)cc1 (single isomer, unassigned) [Compound 44]",< 10 nM
2,"N#Cc1ccc(-c2ccc3c(c2)nc2n3CC3CCC(C2)N3C2CCC2)cc1 (single isomer, unassigned) [Compound 45]",< 1000 nM
3,"N#Cc1ccc(-c2ccc3c(c2)nc2n3CCN3CCCCC3C2)cc1 (single isomer, unassigned) [Compound 46]",< 100 nM
4,"N#Cc1ccc(-c2ccc3c(c2)nc2n3CCN3CCCCC3C2)cc1 (single isomer, unassigned) [Compound 47]",< 10 nM
5,"c1cc2c(cc1CN1CCOCC1)nc1n2CCN2CCCCC2C1 (single isomer, unassigned) [Compound 50]",< 10 nM
6,"c1cc2c(cc1CN1CCOCC1)nc1n2CCN2CCCCC2C1 (single isomer, unassigned) [Compound 51]",< 100 nM
7,"c1cn2cc(-c3ccc4c(c3)nc3n4CCCN4CCCCC4C3)ccc2n1 (single isomer, unassigned) [Compound 70]",< 10 nM
8,"c1cn2cc(-c3ccc4c(c3)nc3n4CCCN4CCCCC4C3)ccc2n1 (single isomer, unassigned) [Compound 71]",< 100 nM
9,"c1cn2cc(-c3ccc4c(c3)nc3n4CCN4CCCC4C3)ccc2n1 (single isomer, unassigned) [Compound 77]",< 10 nM
10,"c1cn2cc(-c3ccc4c(c3)nc3n4CCN4CCCC4C3)ccc2n1 (single isomer, unassigned) [Compound 78]",< 100 nM
11,"c1cn2cc(-c3ccc4c(c3)nc3n4CCCN4CCCC4C3)ccc2n1 (single isomer, unassigned) [Compound 82]",< 10 nM
12,"c1cn2cc(-c3ccc4c(c3)nc3n4CCCN4CCCC4C3)ccc2n1 (single isomer, unassigned) [Compound 83]",< 10 nM
13,"CC(=O)Nc1ccc(-c2ccc3c(c2)nc2n3CCN3CCC[C@H]3C2)cc1 [Compound 3, (S)-N-(4-(2,3,5,6,13,13a-hexahydro-1H-benzo[4,5]imidazo[1,2-d]pyrrolo[2,1-g][1,4]diazepin-10-yl)phenyl)acetamide]",< 100 nM
14,"c1coc(-c2ccc3c(c2)nc2n3CCN3CCC[C@H]3C2)c1 [Compound 4, (5)-10-(furan-2-yl)-2,3,5,6,13,13a-hexahydro-1H-benzo[4,5]imidazo[1,2-d]pyrrolo[2,1-g][1,4]diazepine]",< 1000 nM
15,"N#Cc1ccc(-c2ccc3c(c2)nc2n3CCN3CCC[C@H]3C2)cn1 [Compound 5, (S)-5-(2,3,5,6,13,13a-hexahydro-1H-benzo[4,5]imidazo[1,2-d]pyrrolo[2,1-g][1,4]diazepin-10-yl)picolinonitrile]",< 100 nM
16,"c1cnc(-c2ccc3c(c2)nc2n3CCN3CCC[C@H]3C2)cn1 [Compound 6, (S)-10-(pyrazin-2-yl)-2,3,5,6,13,13a-hexahydro-1H-benzo[4,5]imidazo[1,2-d]pyrrolo[2,1-g][1,4]diazepine]",> 1000 nM
17,"Brc1ccc2c(c1)nc1n2CCN2CCCCC2C1 (stereo not shown) [Compound 7, 11-bromo-1,2,3,4,6,7,14,14a-octahydrobenzo-[4,5]imidazo[1,2-d]pyrido[2,1-g][1,4]diazepine]",< 100 nM

row,Structure (SMILES),IC50
1,"N#Cc1ccc(-c2ccc3c(c2)nc2n3CCN3CCCCC3C2)cc1 (stereo not shown) [Compound 8, 4-(1,2,3,4,6,7,14,14a-octahydrobenzo[4,5]imidazo-[1,2-d]pyrido[2,1-g][1,4]diazepin-11-yl)benzonitrile]",< 10 nM
2,"c1cnc(-c2ccc3c(c2)nc2n3CCN3CCCCC3C2)cn1 (stereo not shown) [Compound 9, 11-(pyrazin-2-yl)-1,2,3,4,6,7,14,14a-octahydrobenzo[4,5]imidazo[1,2-d]pyrido[2,1-g][1,4]diazepine]",< 10 nM
3,"c1cn(-c2ccc3c(c2)nc2n3CCN3CCCCC3C2)cn1 (stereo not shown) [Compound 10, 11-(1H-imidazol-1-yl)-1,2,3,4,6,7,14,14a-octahydrobenzo[4,5]imidazo[1,2-d]pyrido[2,1-g][1,4]diazepine]",< 10 nM
4,"CN1CCN(c2ccc3c(c2)nc2n3CCN3CCCCC3C2)CC1 (stereo not shown) [Compound 11, 11-(4-methylpiperazin-1-yl)-1,2,3,4,6,7,14,14a-octahydrobenzo[4,5]imidazo[1,2-d]pyrido[2,1-g][1,4]diazepine]",< 10 nM
5,"N#Cc1ccc(-c2ccc3c(c2)nc2n3CC3CCCN3CC2)cc1 (stereo not shown) [Compound 13, 4-(2,3,5,6,13,13a-hexahydro-1H-benzo[4,5]imidazo[1,2-d]pyrrolo[1,2-a][1,4]diazepin-9-yl)benzonitrile]",< 1000 nM
6,"c1coc(-c2ccc3c(c2)nc2n3CC3CCCN3CC2)c1 (stereo not shown) [Compound 14, 9-(furan-2-yl)-2,3,5,6,13,13a-hexahydro-1H-benzo[4,5]imidazo[1,2-d]pyrrolo[1,2-a][1,4]diazepine]",> 1000 nM
7,"c1cn2cc(-c3ccc4c(c3)nc3n4CCN4CCCCC4C3)ccc2n1 (stereo not shown) [Compound 15, 11-(imidazo[1,2-a]pyridin-6-yl)-1,2,3,4,6,7,14,14a-octahydrobenzo[4,5]imidazo[1,2-d]pyrido[2,1-g][1,4]diazepine]",< 10 nM
8,"c1ccc2c(c1)ncn2-c1ccc2c(c1)nc1n2CCN2CCCCC2C1 (stereo not shown) [Compound 16, 11-(1H-benzo[d]imidazol-1-yl)-1,2,3,4,6,7,14,14a-octahydrobenzo[4,5]imidazo[1,2-d]pyrido[2,1-g][1,4]diazepine]",< 10 nM
9,"c1cc2c(cc1CN1CCOCC1)nc1n2CCN2CCCCC2C1 (stereo not shown) [Compound 17, 4-((1,2,3,4,6,7,14,14a-octahydrobenzo[4,5]imidazo[1,2-d]pyrido[2,1-g][1,4]diazepin-11-yl)methyl)morpholine]",< 10 nM
10,"Clc1ccc2c(c1)nc1n2CC2CCC(C1)N2C1CCC1 (stereo not shown) [Compound 18, 3-chloro-13-cyclobutyl-6,7,8,9,10,11-hexahydro-7,10-epiminobenzo[4,5]imidazo[1,2-a]azocine]",< 1000 nM
11,"N#Cc1ccc(-c2ccc3c(c2)nc2n3CC3CCC(C2)N3C2CCC2)cc1 (stereo not shown) [Compound 20, 4-(13-cyclobutyl-6,7,8,9,10,11-hexahydro-7,10-epiminobenzo[4,5]imidazo[1,2-a]azocin-3-yl)benzonitrile]",< 10 nM
12,"CC(=O)Nc1ccc(-c2ccc3c(c2)nc2n3CC3CCC(C2)N3C2CCC2)cc1 (stereo not shown) [Compound 21, N-(4-(13-cyclobutyl-6,7,8,9,10,11-hexahydro-7,10-epiminobenzo[4,5]imidazo[1,2-a]azocin-3-yl)phenyl)acetamide]",< 10 nM
13,"c1cc2cc(-c3ccc4c(c3)nc3n4CC4CCC(C3)N4C3CCC3)ccc2[nH]1 (stereo not shown) [Compound 22, 13-cyclobutyl-3-(1H-indol-5-yl)-6,7,8,9,10,11-hexahydro-7,10-epiminobenzo[4,5]imidazo[1,2-a]azocine]",< 100 nM
14,"N#Cc1ccc(-c2ccc3c(c2)nc2n3CC3CCC(C2)N3C2CCC2)cc1F (stereo not shown) [Compound 24, 4-(13-cyclobutyl-6,7,8,9,10,11-hexahydro-7,10-epiminobenzo[4,5]imidazo[1,2-a]azocin-3-yl)-2-fluorobenzonitrile]",< 10 nM
15,"Clc1ccc2c(c1)nc1n2C2CCC1CN(C1CCC1)C2 (stereo not shown) [Compound 25, 8-chloro-3-cyclobutyl-2,3,4,5-tetrahydro-1H-1,5-ethanobenzo[4,5]imidazo[1,2-d][1,4]diazepine]",< 1000 nM
16,"CC(=O)Nc1ccc(-c2ccc3c(c2)nc2n3C3CCC2CN(C2CCC2)C3)cc1 (stereo not shown) [Compound 27, N-(4-(3-cyclobutyl-2,3,4,5-tetrahydro-1H-1,5-ethanobenzo[4,5]imidazo[1,2-d][1,4]diazepin-8-yl)phenyl)acetamide]",< 100 nM
17,"c1cc2cc(-c3ccc4c(c3)nc3n4C4CCC3CN(C3CCC3)C4)ccc2[nH]1 (stereo not shown) [Compound 28, 3-cyclobutyl-8-(1H-indol-5-yl)-2,3,4,5-tetrahydro-1H-1,5-ethanobenzo[4,5]imidazo[1,2-d][1,4]diazepine]",> 1000 nM
